{
  "source": "patent US20040067991A1",
  "about": "“Tetrahydrobenzothiazole analogues as neuroprotective agents” (priority 2003, published 2004)",
  "key": {"C57BL/6 mice given MPTP [1]": {"system": "C57BL/6 mice given MPTP", "assay": "MPTP model: striatal dopamine, serotonin and metabolites by HPLC", "format": "in vivo, mouse", "details": "striatal tissue; for 5-HIAA / 5-HT / DOPAC / Dopamine / HVA: compound 2 mg/kg + MPTP, mean±SE, 4-6 mice/group", "experimental": "(§1) The ability of PFTα (5) and compounds 5× (Z-1-117) and 13 (Z-1-143) to protect dopaminergic neurons against MPTP toxicity was tested. MPTP (20 mg/kg) was administered intraperitoneally to 2 month-old male C57BL/6 mice by four injections at two hour intervals to induce dopaminergic cell death.\nIn a separate experiment, levels of striatal dopamine, dopamine metabolites, serotonin, and serotonin metabolites were measured using HPLC analysis. Specifically, mice were euthanatized, and striatal tissue samples were removed and levels of dopamine, DOPAC, HVA, 5-HT, 5-HIAA were quantified. […] There was no significant difference in levels of serotonin or serotonin metabolites."}, "PC12 cells": {"system": "PC12 cells", "assay": "Protection of PC12 cells against camptothecin-induced cell death (BCECF AM fluorescence)", "format": "cell-based", "experimental": "The 2-amino-4,5,6,7-tetrahydrobenzothiazole hydrogen iodide, 1-(4-methylphenyl)-2-(4,5,6,7-tetrahydro-2-imino-3(2H)-benzothiazolyl)-ethanone hydrobromide, and analogues were tested for their ability to protect PC12 cells against the toxic agent, camptothecin. PC12 cells were cultured in RPMI1640 media containing 10% horse serum and 5% fetal calf serum (37° C., pH 7.4) until confluent. Thereafter, 2.2×10^4 cells per mL were added to each trough of a 96 well plate (approximately 6,270 cells per well 285 μL) and were left to grow for 12 h. The media then was removed and was replaced by media with and without the compounds to be tested, including precursor, PFTα, and numerous analogues (concentration 100-400 nM, prepared in DMSO to a final dilution of 0.4%, 8 wells per concentration). Following 6 h of incubation, camptothecin (40 μM) was added to 4 of each 8 wells, and the cells were incubated for a further 24 h. Cells then were gently washed twice with phosphate buffered saline (PBS: 0.1 M, 37° C., pH 7.4) and were incubated in PBS containing the live-cell indicator dye, 2′,7′-bis(2-carboxyethey)-5-6-carboxyfluorescein AM ester (BCECF AM: 5 μM) (Molecular Probes, CA), for 45 min in minimal light. This fluorescent dye was taken up and retained by live cells. Finally, the cells were washed twice in PBS and their fluorescence then was quantified (excitation: 490 nm, emission: 535 nm, Perkin Elmer HTS 7000).\nPC12 cell survival was also assessed. One hundred percent cell survival was determined from cells incubated in the absence of both any compound and camptothecin. […] Compound-induced toxicity was assessed by comparing cells treated with compound at various concentrations in the absence of camptothecin with cells incubated in the absence of both compound and camptothecin. […] Compound-induced cellular protection was assessed by comparing cells incubated with camptothecin with cells incubated with camptothecin in the presence of compound, in a concentration-dependent manner."}, "rat hippocampal neurons": {"system": "rat hippocampal neurons", "assay": "Neuronal survival assay in cultured hippocampal neurons treated with camptothecin or etoposide", "format": "cell-based", "details": "for neuroprotection of hippocampal neurons against camptothecin (in words): 100 nM, added 1 h before camptothecin 5 μM; for neuroprotection of hippocampal neurons against etoposide (in words): added 1 h before etoposide 2.5 μM; for protection of primary hippocampal cells against death induced by camptothecin and etoposide (in words) / neurons killed: camptothecin 5 μM, etoposide 2.5 μM; for protection of primary hippocampal cells against death induced by camptothecin and etoposide (in words) / neuronal survival: 24 h; for neuronal survival: pretreated with 100 nM of analogue, then camptothecin (5 μM); for neurons killed: hippocampal neurons", "experimental": "2-amino-4,5,6,7-tetrahydrobenzothiazole hydrogen and 1-(4-methylphenyl)-2-(4,5,6,7-tetrahydro-2-imino-3(2H)-benzothiazolyl)-ethanone hydrobromide and their analogues were assessed for their ability to protect rat hippocampal cells in culture from camptothecin ([…]).\nDissociated hippocampal cell cultures were established from embryonic day 18 Sprague-Dawley rats (Harlan, Inc.) as described previously. […] 77:220-28. Cells were grown in polyethyleneimine-coated plastic dishes or 22 m^2 glass coverslips, and incubated in Neurobasal medium containing B27 supplements, 2 mM L-glutamine, 25 mg/ml gentamycin, 1 mM Hepes (Gibco BRL) and 0.001% gentamicin sulfate. All experiments were performed using 9-10 day-old cultures. Camptothecin and etoposide (Signia) were prepared as 500× stocks in DMSO. Neuron survival was quantified by established methods. […] Briefly, viable neurons in premarked fields (10× objective) were counted before experimental treatment and at specified time points thereafter. Neurons with intact neurites of uniform diameter and soma with a smooth round appearance were considered viable. In contrast neurons with fragmented neurites and vacuolated soma were considered non-viable."}, "[2]": {"system": "substantia nigra dopaminergic neurons", "assay": "MPTP model: TH-immunostained cells in the substantia nigra", "format": "in vivo, mouse", "details": "2 mg/kg, seven days after treatment, 4 mice/group", "experimental": "as §1\nIn yet another experiment, the number of TH-immunostained cells in the substantia nigra was assessed in four animals seven days after treatment. Mice were euthanized and perfused by 4% paraformadehyde transcardially. Brain sections were cut and immunostained with an antibody against TH. PFT-A and compound 5× attenuated MPTP-induced loss of substantia nigra dopaniinergic neurons."}, "[3]": {"system": "striatal tyrosine hydroxylase (TH)", "assay": "MPTP model: striatal tyrosine hydroxylase levels by Western blot densitometry", "format": "in vivo, mouse", "details": "2 mg/kg, 7 days later, hydrobromide", "experimental": "as §1\nLevels of tyrosine hydroxylase (TH), the enzyme that catalyzes the rate-limiting step in dopamine synthesis, also were assessed in the striatum using Western blot analysis."}, "C57BL/6 mice given MPTP [4]": {"system": "C57BL/6 mice given MPTP", "assay": "MPTP-induced Parkinson's disease model: rotarod behavioral tests", "format": "in vivo, mouse", "details": "2 mg/kg i.p. 30 min before first and 30 min after last MPTP injection; day 7", "experimental": "as §1\nAt seven days, behavioral tests were performed using the rotarod test equipment. The number of falls and running times were measured."}, "[5]": {"details": "6 h preincubation with compound, camptothecin 40 μM for 24 h; read-out: PD50; concentration of compounds required to induce 50% protection (PC50) of PC12 cells from camptothecin-induced cell-death"}, "[6]": {"details": "compounds 100-400 nM, camptothecin 40 μM 24 h"}},
  "note": "Entries after “also recorded” stand apart in the source; their conditions may differ. Where two headings read alike, the source gives them in different places.",
  "data": [
    {"compound": "Br.Cc1ccc(C(=O)Cn2c3c(sc2=N)CC(C)CC3)cc1", "note": "(centres unmarked) [Compound 5×, 1-(4-methylphenyl)-2-(4,5,6,7-tertahydro-2-imino-6-methyl-3(2H)-benzothiazolyl)-ethanone hydrobromide]", "values": [
      {"measurement": "levels of dopamine, DOPAC, and HVA as compared to the MPTP-induced reduction (in words)", "setting": "C57BL/6 mice given MPTP [1]; 2 mg/kg", "value": "statistically significant increase"},
      {"measurement": "5-HIAA", "setting": "C57BL/6 mice given MPTP [1]", "value": "246 ± 15", "unit": "pg/mg tissue weight"},
      {"measurement": "5-HT", "setting": "C57BL/6 mice given MPTP [1]", "value": "424 ± 12", "unit": "pg/mg tissue weight"},
      {"measurement": "DOPAC", "setting": "C57BL/6 mice given MPTP [1]", "value": 102, "unit": "pg/mg tissue weight"},
      {"measurement": "Dopamine", "setting": "C57BL/6 mice given MPTP [1]", "value": 1833, "unit": "pg/mg tissue weight"},
      {"measurement": "HVA", "setting": "C57BL/6 mice given MPTP [1]", "value": "302 ± 20", "unit": "pg/mg tissue weight"},
      {"measurement": "EC50", "setting": "PC12 cells; [5]", "value": 306, "unit": "nM"},
      {"measurement": "protection of PC12 cells against camptothecin-induced death (in words)", "setting": "PC12 cells; [6]", "value": "highly potent"},
      {"measurement": "neuroprotection of hippocampal neurons against camptothecin (in words)", "setting": "rat hippocampal neurons", "value": "could not protect neurons effectively"},
      {"measurement": "neuroprotection of hippocampal neurons against etoposide (in words)", "setting": "rat hippocampal neurons", "value": "activity comparable to PFTα"},
      {"measurement": "protection of primary hippocampal cells against death induced by camptothecin and etoposide (in words)", "setting": "rat hippocampal neurons", "value": "highly potency"},
      {"measurement": "neuronal survival", "setting": "rat hippocampal neurons", "value": 29, "unit": "%"},
      {"measurement": "MPTP-induced loss of substantia nigra dopaminergic neurons, TH-positive cells (in words)", "setting": "[2]", "value": "attenuated"},
      {"measurement": "MPTP-induced loss of striatal tyrosine hydroxylase (in words)", "setting": "[3]", "value": "attenuate; also recorded: reverse the MPTP reduction in TH levels"},
      {"measurement": "number of falls on rotarod (in words)", "setting": "C57BL/6 mice given MPTP [4]", "value": "statistically significant decease"},
      {"measurement": "running time on rotarod (in words)", "setting": "C57BL/6 mice given MPTP [4]", "value": "statistically significant increase"}
    ]},
    {"compound": "Br.COc1cccc(C(=O)Cn2c3c(sc2=N)CCCC3)c1", "note": "[Compound 8, 1-(3-methoxylphenyl)-2-(4,5,6,7-tertahydro-2-imino-3(2H)-benzothiazolyl)-ethanone hydrobromide]", "values": [
      {"measurement": "EC50", "setting": "PC12 cells; [5]", "value": 418, "unit": "nM"},
      {"measurement": "neuroprotection of hippocampal neurons against camptothecin (in words)", "setting": "rat hippocampal neurons", "value": "significantly protected"},
      {"measurement": "protection of primary hippocampal cells against death induced by camptothecin and etoposide (in words)", "setting": "rat hippocampal neurons", "value": "highly potency"}
    ]},
    {"compound": "Br.N=c1sc2c(n1CC(=O)c1ccc(Cl)cc1)CCCC2", "note": "[Compound 9, 1-(4-chlorophenyl)-2-(4,5,6,7-tertahydro-2-imino-3(2H)-benzothiazolyl)ethanone hydrobromide]", "values": [
      {"measurement": "EC50", "setting": "PC12 cells; [5]", "value": 187, "unit": "nM"},
      {"measurement": "protection of PC12 cells against camptothecin-induced death (in words)", "setting": "PC12 cells; [6]", "value": "highly potent"},
      {"measurement": "neuroprotection of hippocampal neurons against camptothecin (in words)", "setting": "rat hippocampal neurons", "value": "significantly protected"},
      {"measurement": "protection of primary hippocampal cells against death induced by camptothecin and etoposide (in words)", "setting": "rat hippocampal neurons", "value": "highly potency"}
    ]},
    {"compound": "Br.N=c1sc2c(n1CC(=O)c1ccccc1)CCCC2", "note": "[Compound 13, 1-phenyl-2-(4,5,6,7-tertahydro-2-imino-3(2H)-benzothiazolyl)-ethanone hydrobromide]", "values": [
      {"measurement": "5-HIAA", "setting": "C57BL/6 mice given MPTP [1]", "value": "223 ± 45", "unit": "pg/mg tissue weight"},
      {"measurement": "5-HT", "setting": "C57BL/6 mice given MPTP [1]", "value": "429 ± 42", "unit": "pg/mg tissue weight"},
      {"measurement": "DOPAC", "setting": "C57BL/6 mice given MPTP [1]", "value": "10 ± 10", "unit": "pg/mg tissue weight"},
      {"measurement": "Dopamine", "setting": "C57BL/6 mice given MPTP [1]", "value": 440, "unit": "pg/mg tissue weight"},
      {"measurement": "HVA", "setting": "C57BL/6 mice given MPTP [1]", "value": "91 ± 58", "unit": "pg/mg tissue weight"},
      {"measurement": "EC50", "setting": "PC12 cells; [5]", "value": 169, "unit": "nM"},
      {"measurement": "protection of PC12 cells against camptothecin-induced death (in words)", "setting": "PC12 cells; compounds 100-400 nM, camptothecin 40 μM 24 h; hydrobromide", "value": "highly potent; also recorded: highly active in PC12 cells only"}
    ]},
    {"compound": "Br.N=c1sc2c(n1CC1CC1)CCCC2", "note": "[Compound 15, 3-(cyclopropylmethyl)-4,5,6,7-tetrahydro-2(3H)-benzothiazolimine Hydrobromide]", "values": [
      {"measurement": "EC50", "setting": "PC12 cells; [5]", "value": 728, "unit": "nM"},
      {"measurement": "neuroprotection of hippocampal neurons against camptothecin (in words)", "setting": "rat hippocampal neurons", "value": "could not protect neurons effectively"},
      {"measurement": "neuroprotection of hippocampal neurons against etoposide (in words)", "setting": "rat hippocampal neurons", "value": "activity comparable to PFTα"},
      {"measurement": "protection of primary hippocampal cells against death induced by camptothecin and etoposide (in words)", "setting": "rat hippocampal neurons", "value": "highly potency"},
      {"measurement": "neuronal survival", "setting": "rat hippocampal neurons", "value": 23, "unit": "%"}
    ]},
    {"compound": "CC[C@@]1(O)C(=O)OCc2c1cc1n(c2=O)Cc2cc3ccccc3nc2-1", "note": "[camptothecin, reference compound]", "values": [
      {"measurement": "neurons killed", "setting": "rat hippocampal neurons", "value": "approximately 85%"}
    ]},
    {"compound": "COc1cc([C@@H]2c3cc4c(cc3[C@@H](O[C@@H]3O[C@@H]5CO[C@@H](C)O[C@H]5[C@H](O)[C@H]3O)[C@H]3COC(=O)[C@H]23)OCO4)cc(OC)c1O", "note": "[etoposide, reference compound]", "values": [
      {"measurement": "neurons killed", "setting": "rat hippocampal neurons", "value": "approximately 85%"}
    ]},
    {"compound": "I.Nc1nc2c(s1)CCCC2", "note": "[precursor, 2-amino-4,5,6,7-tetrahydrobenzothiazole hydrogen iodide]", "values": [
      {"measurement": "protection of PC12 cells against camptothecin-induced death (in words)", "setting": "PC12 cells; [6]", "value": "low activity"},
      {"measurement": "EC50", "setting": "PC12 cells; read-out: PD50; concentration of compounds required to induce 50% protection (PC50) of PC12 cells from camptothecin-induced cell-death; 6 h preincubation with compound, camptothecin 40 μM for 24 h", "value": 5750, "unit": "nM"},
      {"measurement": "toxicity when administered alone to hippocampal cells", "setting": "rat hippocampal neurons; concentrations up to 400 nM", "value": "neither PFTα (5) nor its precursor were toxic"}
    ]},
    {"compound": "ethyl 2-(4,5,6,7-tertahydro-2-imino-3(2H)-benzothiazolyl)-acetate hydrobromide [Compound 2]", "values": [
      {"measurement": "EC50", "setting": "PC12 cells; [5]", "value": 595, "unit": "nM"}
    ]}
  ]
}
